Experimental data: publication PMC8431030, “In Vitro and In Silico Evaluation of New 1,3,4-Oxadiazole Derivatives of Pyrrolo[3,4-d]pyridazinone as Promising Cyclooxygenase Inhibitors” (International Journal of Molecular Sciences, 2021)

Assays:
COX-2 = target: T1, COX-2 (Homo sapiens, UniProt P35354); experiment: colorimetric COX peroxidase assay (Cayman […]), […] nm; format: biochemical; details: read-out: IC50 [μM] (SD) / COX-2
T1 construct: gene PTGS2; kit is understood to hold human recombinant COX-2 (docking used PDB 4M11, not the assay protein)
T1 sequence (P35354 18-604): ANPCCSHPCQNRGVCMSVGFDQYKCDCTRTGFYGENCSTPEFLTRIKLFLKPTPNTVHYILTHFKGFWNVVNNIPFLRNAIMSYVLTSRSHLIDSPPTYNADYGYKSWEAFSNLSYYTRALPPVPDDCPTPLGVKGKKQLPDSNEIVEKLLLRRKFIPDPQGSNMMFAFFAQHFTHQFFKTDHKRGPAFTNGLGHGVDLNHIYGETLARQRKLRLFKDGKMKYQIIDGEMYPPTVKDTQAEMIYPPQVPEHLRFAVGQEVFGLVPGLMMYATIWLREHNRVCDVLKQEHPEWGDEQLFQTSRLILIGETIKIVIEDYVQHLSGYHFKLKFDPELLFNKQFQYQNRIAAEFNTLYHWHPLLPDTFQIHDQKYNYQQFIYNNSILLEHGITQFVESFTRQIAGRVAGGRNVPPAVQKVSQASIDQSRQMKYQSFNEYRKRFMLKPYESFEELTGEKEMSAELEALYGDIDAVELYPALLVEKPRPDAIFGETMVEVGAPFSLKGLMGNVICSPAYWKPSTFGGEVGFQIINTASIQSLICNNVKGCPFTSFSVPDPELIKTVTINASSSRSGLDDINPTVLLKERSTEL

COX-1 = target: T2, COX-1 (Ovis aries, UniProt P05979); experiment: colorimetric COX peroxidase assay (Cayman […]), […] nm; format: biochemical; details: read-out: IC50 [μM] (SD) / COX-1
T2 construct: gene PTGS1; kit is understood to hold ovine COX-1
T2 sequence (P05979 25-600): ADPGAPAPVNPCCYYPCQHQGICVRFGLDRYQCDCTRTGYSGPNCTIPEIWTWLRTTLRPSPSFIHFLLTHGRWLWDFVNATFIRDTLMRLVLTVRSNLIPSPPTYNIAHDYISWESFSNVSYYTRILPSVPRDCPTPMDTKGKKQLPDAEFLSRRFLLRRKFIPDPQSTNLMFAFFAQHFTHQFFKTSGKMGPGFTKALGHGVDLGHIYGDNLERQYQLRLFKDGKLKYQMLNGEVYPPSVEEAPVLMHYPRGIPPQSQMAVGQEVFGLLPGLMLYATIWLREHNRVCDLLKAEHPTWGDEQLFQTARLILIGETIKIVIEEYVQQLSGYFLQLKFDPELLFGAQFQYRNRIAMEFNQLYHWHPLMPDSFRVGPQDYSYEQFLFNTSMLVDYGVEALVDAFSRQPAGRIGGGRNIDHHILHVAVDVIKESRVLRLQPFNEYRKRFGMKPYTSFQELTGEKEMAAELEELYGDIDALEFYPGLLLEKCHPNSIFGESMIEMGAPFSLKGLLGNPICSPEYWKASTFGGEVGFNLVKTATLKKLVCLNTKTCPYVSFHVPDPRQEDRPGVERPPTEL

| IC50 (COX-2) | IC50 (COX-1) | SMILES |
| --- | --- | --- |
| 43.6 µM | 130 µM | Cc1c2c(OCc3n[nH]c(=S)o3)nn(C)c(=O)c2c(C)n1-c1ccccc1 [1a] |
| 63.4 µM | 138 µM | CCCCn1c(C)c2c(OCc3n[nH]c(=S)o3)nn(C)c(=O)c2c1C [1b] |
| 49.7 µM | 50.3 µM | Cc1ccc(C)c(N2CCN(Cn3nc(COc4nn(C)c(=O)c5c(C)n(-c6ccccc6)c(C)c45)oc3=S)CC2)c1 [2a, 3,5,7-Trimethyl-6-phenyl-1-[[4-[(4-(2,5-dimethylphenyl)piperazin-1-yl)methyl]-2-thioxo-1,3,4-oxadiazol-5-yl]methoxy]pyrrolo[3,4-d]pyridazin-4-one] |
| 49.4 µM | 50 µM | CCCCn1c(C)c2c(OCc3nn(CN4CCN(c5cc(C)ccc5C)CC4)c(=S)o3)nn(C)c(=O)c2c1C [2b, 3,5,7-Trimethyl-6-butyl-1-[[4-[(4-(2,5-dimethylphenyl)piperazin-1-yl)methyl]-2-thioxo-1,3,4-oxadiazol-5-yl]methoxy]pyrrolo[3,4-d]pyridazin-4-one] |
| 49.7 µM | 50.3 µM | Cc1c2c(OCc3nn(CN4CCN(c5ccc(F)cc5F)CC4)c(=S)o3)nn(C)c(=O)c2c(C)n1-c1ccccc1 [3a, 3,5,7-Trimethyl-6-phenyl-1-[[4-[(4-(2,4-difluorophenyl)piperazin-1-yl)methyl]-2-thioxo-1,3,4-oxadiazol-5-yl]methoxy]pyrrolo[3,4-d]pyridazin-4-one] |
| 56 µM | 54.3 µM | CCCCn1c(C)c2c(OCc3nn(CN4CCN(c5ccc(F)cc5F)CC4)c(=S)o3)nn(C)c(=O)c2c1C [3b] |
| 49.2 µM | 50.2 µM | Cc1c2c(OCc3nn(CN4CCN(c5ccc(Cl)c(Cl)c5)CC4)c(=S)o3)nn(C)c(=O)c2c(C)n1-c1ccccc1 [4a, 3,5,7-Trimethyl-6-phenyl-1-[[4-[(4-(3,4-dichlorophenyl)piperazin-1-yl)methyl]-2-thioxo-1,3,4-oxadiazol-5-yl]methoxy]pyrrolo[3,4-d]pyridazin-4-one] |
| 57.3 µM | 56.8 µM | CCCCn1c(C)c2c(OCc3nn(CN4CCN(c5ccc(Cl)c(Cl)c5)CC4)c(=S)o3)nn(C)c(=O)c2c1C [4b, 3,5,7-Trimethyl-6-butyl-1-[[4-[(4-(3,4-dichlorophenyl)piperazin-1-yl)methyl]-2-thioxo-1,3,4-oxadiazol-5-yl]methoxy]pyrrolo[3,4-d]pyridazin-4-one] |
| 50.1 µM | 53.2 µM | Cc1ccc(C)c(N2CCN(C(=O)CSc3nnc(COc4nn(C)c(=O)c5c(C)n(-c6ccccc6)c(C)c45)o3)CC2)c1 [5a, 3,5,7-trimethyl-1-[[2-[2-oxo-2-(4-(2,5-dimethylphenyl)piperazin-1-yl)ethyl]sulfanyl-1,3,4-oxadiazol-5-yl]methoxy]-6-phenyl-pyrrolo[3,4-d]pyridazin-4-one] |
| 53.8 µM | 51.8 µM | CCCCn1c(C)c2c(OCc3nnc(SCC(=O)N4CCN(c5cc(C)ccc5C)CC4)o3)nn(C)c(=O)c2c1C [5b, 3,5,7-trimethyl-1-[[2-[2-oxo-2-(4-(2,5-dimethylphenyl)piperazin-1-yl)ethyl]sulfanyl-1,3,4-oxadiazol-5-yl]methoxy]-6-butyl-pyrrolo[3,4-d]pyridazin-4-one] |
| 50.2 µM | 52.3 µM | Cc1c2c(OCc3nnc(SCC(=O)N4CCN(c5ccc(F)cc5F)CC4)o3)nn(C)c(=O)c2c(C)n1-c1ccccc1 [6a, 3,5,7-trimethyl-1-[[2-[2-oxo-2-(4-(2,4-difluorophenyl)piperazin-1-yl)ethyl]sulfanyl-1,3,4-oxadiazol-5-yl]methoxy]-6-phenyl-pyrrolo[3,4-d]pyridazin-4-one] |
| 50.1 µM | 51.1 µM | CCCCn1c(C)c2c(OCc3nnc(SCC(=O)N4CCN(c5ccc(F)cc5F)CC4)o3)nn(C)c(=O)c2c1C [6b, 3,5,7-trimethyl-1-[[2-[2-oxo-2-(4-(2,4-difluorophenyl)piperazin-1-yl)ethyl]sulfanyl-1,3,4-oxadiazol-5-yl]methoxy]-6-butyl-pyrrolo[3,4-d]pyridazin-4-one] |
| 50.3 µM | 51.6 µM | Cc1c2c(OCc3nnc(SCC(=O)N4CCN(c5ccc(Cl)c(Cl)c5)CC4)o3)nn(C)c(=O)c2c(C)n1-c1ccccc1 [7a, 3,5,7-trimethyl-1-[[2-[2-oxo-2-(4-(3,4-dichloro)piperazin-1-yl)ethyl]sulfanyl-1,3,4-oxadiazol-5-yl]methoxy]-6-phenyl-pyrrolo[3,4-d]pyridazin-4-one] |
| 49.5 µM | 50.9 µM | CCCCn1c(C)c2c(OCc3nnc(SCC(=O)N4CCN(c5ccc(Cl)c(Cl)c5)CC4)o3)nn(C)c(=O)c2c1C [7b, 3,5,7-trimethyl-1-[[2-[2-oxo-2-(4-(3,4-dichlorophenyl)piperazin-1-yl)ethyl]sulfanyl-1,3,4-oxadiazol-5-yl]methoxy]-6-butyl-pyrrolo[3,4-d]pyridazin-4-one] |
